Reference: patent US20240139185A1, “COMPOUNDS THAT PARTICIPATE IN COOPERATIVE BINDING AND USES THEREOF” (Revolution Medicines, Inc., priority 2018, published 2024)

Tests used:
cyclophilin A (CYPA) = cyclophilin A (CYPA) (Homo sapiens, UniProt P62937); test: CYPA-compound binary complex formation by SPR; conditions: read-out: CYPA Binding Affinity
How it was run: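 CypA-Avi captured on a Biotin CAPture chip (4 μg/ml), reference flow cell subtracted. Compounds injected as 10-point 2-fold dilutions from 50 μM in HBS-P+ pH7.4 with 2% DMSO; 60 s association and 60 s dissociation, solvent-corrected. Affinity obtained by steady-state fitting.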

[1] = molecular target: T1, BRAF-GTP-KRAS-G12C complex (Homo sapiens, UniProt P01116+P62937, G12C); test: KRAS-BRAF complex disruption through competition with CYPA-compound by TR-FRET; conditions: biochemical BRAF-KRAS G12C-GTP disruption assay EC50, with CYPA
T1 construct: 50 nM of His6-KRas G12C-GTP (1-169); 500 nM of tagless CypA (1-165)
How it was run: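 His6-KRAS G12C-GTP (1-169, 50 nM) with tagless CypA (1-165, 500 nM) was incubated with compound for 3 h at room temperature in pH 7.3 Hepes/NaCl/MgCl2 buffer containing GST-BRAF RBD. Anti-His Eu (10 nM) and anti-GST APC (50 nM) were then added for 1.5 h, and the 665/615 nm TR-FRET ratio was read. EC50 from 4-parameter fit; for specificity, wild-type KRAS replaced G12C, and CypA was omitted to test presenter dependence.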

pERK in H358 cells = test: pERK inhibition in H358 cells; assay type: cell-based, human; conditions: 4 hours treatment, read-out: Cellular pERK inhibition
How it was run: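 Human lung cancer H358 cells in RPMI/10% FBS were exposed to compound or DMSO for 4 h. Fixed and permeabilized cells were stained overnight at 4 C with anti-phospho-ERK1/2 (Thr202/Tyr204). Near-infrared imaging read the pERK signal at 800 nm, with DRAQ5 at 700 nm.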

CCN1CCC(=O)N2C[C@H](C)COC(=O)[C@@H]3CCCN(N3)C(=O)[C@@H](NC(=O)[C@H](C(C)C)N(C)C(=O)C3CN(C(=O)CCl)C3)Cc3cc(O)cc(c3)-c3ccc1c2c3 [Compound 186]
Kd (cyclophilin A (CYPA)): 5 to 15 µM
EC50 [1]: > 5 µM
IC50 (pERK in H358 cells): > 10 µM

CCN1CCCN2C[C@H](C)COC(=O)[C@@H]3CCCN(N3)C(=O)[C@@H](NC(=O)[C@H](C(C)C)N(C)C(=O)C3CN(C(=O)CCl)C3)Cc3cc(O)cc(c3)-c3ccc1c2c3 [Compound 187]
Kd (cyclophilin A (CYPA)): 5 to 15 µM
EC50 [1]: > 5 µM
IC50 (pERK in H358 cells): > 10 µM

CCN1C(=O)CCN2C[C@H](C)COC(=O)[C@@H]3CCCN(N3)C(=O)[C@@H](NC(=O)[C@H](C(C)C)N(C)C(=O)C3CN(C(=O)CCl)C3)Cc3cc(O)cc(c3)-c3ccc1c2c3 [Compound 188]
Kd (cyclophilin A (CYPA)): ≤ 5 µM
EC50 [1]: > 5 µM
IC50 (pERK in H358 cells): > 10 µM

CC(C)[C@@H](C(=O)N[C@H]1Cc2cc(O)cc(c2)-c2ccc3c(c2)n(c(=O)n3C)CC(C)(C)COC(=O)[C@@H]2CCCN(N2)C1=O)N(C)C(=O)C1CN(C(=O)CCl)C1 [Compound 189]
Kd (cyclophilin A (CYPA)): ≤ 5 µM
EC50 [1]: ≤ 0.5 µM
IC50 (pERK in H358 cells): ≤ 1 µM

CC#CC(=O)N1CC(C(=O)N(C)[C@H](C(=O)N[C@H]2Cc3cc(O)cc(c3)-c3ccc4c(c3)n(c(=O)n4C)CC(C)(C)COC(=O)[C@@H]3CCCN(N3)C2=O)C(C)C)C1 [Compound 190]
Kd (cyclophilin A (CYPA)): ≤ 5 µM
EC50 [1]: 0.5 to 5 µM
IC50 (pERK in H358 cells): > 10 µM

C=CC(=O)N1CCN([C@H](C(=O)N[C@H]2Cc3cc(O)cc(c3)-c3ccc4cnn(c4c3)CC(C)(C)COC(=O)[C@@H]3CCCN(N3)C2=O)C(C)C)C1=O [Compound 199]
Kd (cyclophilin A (CYPA)): 5 to 15 µM
EC50 [1]: 0.5 to 5 µM
IC50 (pERK in H358 cells): > 10 µM

C=CC(=O)N1CCN([C@H](C(=O)N[C@H]2Cc3cc(O)cc(c3)-c3ccc4c(Cl)nn(c4c3)CC(C)(C)COC(=O)[C@@H]3CCCN(N3)C2=O)C(C)C)C1=O [Compound 200]
Kd (cyclophilin A (CYPA)): > 15 µM
EC50 [1]: ≤ 0.5 µM
IC50 (pERK in H358 cells): > 10 µM

CC(C)[C@@H](C(=O)N[C@H]1Cc2cc(O)cc(c2)-c2ccc3c(Cl)nn(c3c2)CC(C)(C)COC(=O)[C@@H]2CCCN(N2)C1=O)N(C)C(=O)C1CN(C(=O)CCl)C1 [Compound 201]
Kd (cyclophilin A (CYPA)): > 15 µM
EC50 [1]: ≤ 0.5 µM
IC50 (pERK in H358 cells): ≤ 1 µM

CC(C)[C@@H](C(=O)N[C@H]1Cc2cc(O)cc(c2)-c2ccc3c(C(F)F)nn(c3c2)C[C@H](C)COC(=O)[C@@H]2CCCN(N2)C1=O)N(C)C(=O)C1CN(C(=O)CCl)C1 [Compound 202]
Kd (cyclophilin A (CYPA)): ≤ 5 µM
EC50 [1]: ≤ 0.5 µM
IC50 (pERK in H358 cells): 1 to 10 µM

C=CC(=O)N1CCC1C(=O)N(C)C(C(=O)NC1Cc2cc(O)cc(c2)-c2ccc3c(C(F)F)nn(c3c2)CC(C)COC(=O)C2CCCN(N2)C1=O)C(C)C (stereo not drawn) [Compound 203]
Kd (cyclophilin A (CYPA)): > 15 µM
EC50 [1]: > 5 µM
IC50 (pERK in H358 cells): > 10 µM

C=CC(=O)N1CCC1C(=O)N(C)C(C(=O)NC1Cc2cc(O)cc(c2)-c2ccc3c(C(F)F)nn(c3c2)CC(C)COC(=O)C2CCCN(N2)C1=O)C(C)C (stereo not drawn) [Compound 204]
Kd (cyclophilin A (CYPA)): 5 to 15 µM
EC50 [1]: > 5 µM
IC50 (pERK in H358 cells): 1 to 10 µM

C=CC(=O)N1CCCC1C(=O)N(C)C(C(=O)NC1Cc2cc(O)cc(c2)-c2ccc3c(C(F)F)nn(c3c2)CC(C)COC(=O)C2CCCN(N2)C1=O)C(C)C (stereo not drawn) [Compound 205]
Kd (cyclophilin A (CYPA)): > 15 µM
EC50 [1]: > 5 µM
IC50 (pERK in H358 cells): > 10 µM

CC(C)[C@@H](C(=O)N[C@H]1Cc2cc(O)cc(c2)-c2ccc3c(-c4ccnn4C)cn(c3c2)CC(C)(C)COC(=O)[C@@H]2CCCN(N2)C1=O)N(C)C(=O)C1CN(C(=O)CCl)C1 [Compound 239]
Kd (cyclophilin A (CYPA)): ≤ 5 µM
EC50 [1]: ≤ 0.5 µM
IC50 (pERK in H358 cells): 1 to 10 µM

Cc1cnn(C)c1-c1cn2c3cc(ccc13)-c1cc(O)cc(c1)C[C@H](NC(=O)[C@H](C(C)C)N(C)C(=O)C1CN(C(=O)CCl)C1)C(=O)N1CCC[C@H](N1)C(=O)OCC(C)(C)C2 [Compound 240]
Kd (cyclophilin A (CYPA)): 5 to 15 µM
EC50 [1]: ≤ 0.5 µM
IC50 (pERK in H358 cells): 1 to 10 µM

CC(C)[C@@H](C(=O)N[C@H]1Cc2cc(O)cc(c2)-c2ccc3c(-c4ccccc4Cl)cn(c3c2)CC(C)(C)COC(=O)[C@@H]2CCCN(N2)C1=O)N(C)C(=O)C1CN(C(=O)CCl)C1 [Compound 241]
Kd (cyclophilin A (CYPA)): > 15 µM
EC50 [1]: ≤ 0.5 µM
IC50 (pERK in H358 cells): 1 to 10 µM

CC(C)[C@@H](C(=O)N[C@H]1Cc2cc(O)cc(c2)-c2ccc3c(-c4ccccc4F)cn(c3c2)CC(C)(C)COC(=O)[C@@H]2CCCN(N2)C1=O)N(C)C(=O)C1CN(C(=O)CCl)C1 [Compound 242]
Kd (cyclophilin A (CYPA)): > 15 µM
EC50 [1]: ≤ 0.5 µM
IC50 (pERK in H358 cells): 1 to 10 µM

CC(C)C1COC(=O)[C@@H]2CCCN(N2)C(=O)[C@@H](NC(=O)[C@H](C(C)C)N(C)C(=O)C2CN(C(=O)CCl)C2)Cc2cc(O)cc(c2)-c2ccc3c(C(C)(C)C#N)cn(c3c2)C1 (stereo partly drawn) [Compound 246]
Kd (cyclophilin A (CYPA)): 5 to 15 µM
EC50 [1]: ≤ 0.5 µM
IC50 (pERK in H358 cells): 1 to 10 µM

CC(C)[C@@H](C(=O)N[C@H]1Cc2cc(O)cc(c2)-c2ccc3c(CCC#N)cn(c3c2)CC(C)(C)COC(=O)[C@@H]2CCCN(N2)C1=O)N(C)C(=O)C1CN(C(=O)CCl)C1 [Compound 256]
Kd (cyclophilin A (CYPA)): ≤ 5 µM
EC50 [1]: ≤ 0.5 µM
IC50 (pERK in H358 cells): ≤ 1 µM

CC(C)[C@@H](C(=O)N[C@H]1Cc2cc(O)cc(c2)-c2ccc3c(-c4ccn(C)n4)cn(c3c2)CC(C)(C)COC(=O)[C@@H]2CCCN(N2)C1=O)N(C)C(=O)C1CN(C(=O)CCl)C1 [Compound 257]
Kd (cyclophilin A (CYPA)): 5 to 15 µM
EC50 [1]: ≤ 0.5 µM
IC50 (pERK in H358 cells): 1 to 10 µM

CC#CC(=O)N1CC2(CCN([C@H](C(=O)N[C@H]3Cc4cc(O)cc(c4)-c4ccc5c(C(C)(C)C#N)cn(c5c4)CC(C)(C)COC(=O)[C@@H]4CCCN(N4)C3=O)C(C)C)C2=O)C1 [Compound 259]
Kd (cyclophilin A (CYPA)): 5 to 15 µM
EC50 [1]: 0.5 to 5 µM
IC50 (pERK in H358 cells): > 10 µM

CC(C)[C@@H](C(=O)N[C@H]1Cc2cc(O)nc(c2)-c2ccc3c(C(C)(C)C#N)cn(c3c2)CC(C)(C)COC(=O)[C@@H]2CCCN(N2)C1=O)N(C)C(=O)C1CN(C(=O)CCl)C1 [Compound 339]
Kd (cyclophilin A (CYPA)): ≤ 5 µM
EC50 [1]: > 5 µM
IC50 (pERK in H358 cells): > 10 µM

CC#CC(=O)N1CCN(C(=O)N(C)[C@H](C(=O)N[C@H]2Cc3cc(O)cc(c3)-c3ccc4c(C(C)(C)C#N)cn(c4c3)CC(C)(C)COC(=O)[C@@H]3CCCN(N3)C2=O)C(C)C)CC1 [Compound 343]
Kd (cyclophilin A (CYPA)): ≤ 5 µM
EC50 [1]: 0.5 to 5 µM
IC50 (pERK in H358 cells): 1 to 10 µM

C=CC(=O)N1CCN(C(=O)N(C)[C@H](C(=O)N[C@H]2Cc3cc(O)cc(c3)-c3ccc4c(C(C)(C)C#N)cn(c4c3)CC(C)(C)COC(=O)[C@@H]3CCCN(N3)C2=O)C(C)C)CC1 [Compound 344]
Kd (cyclophilin A (CYPA)): 5 to 15 µM
EC50 [1]: 0.5 to 5 µM
IC50 (pERK in H358 cells): 1 to 10 µM

C=CC(=O)N1CCC(C(=O)N(C)C(C(=O)NC2Cc3cc(O)cc(c3)-c3ccc4c(c3)N(CC(C)COC(=O)C3CCCN(N3)C2=O)CC4(C)C(C)=O)C(C)C)C1 (stereo not drawn) [Compound 391]
Kd (cyclophilin A (CYPA)): ≤ 5 µM
EC50 [1]: > 5 µM
IC50 (pERK in H358 cells): > 10 µM

C=CC(=O)N1CCC(C(=O)N(C)C(C(=O)NC2Cc3cc(O)cc(c3)-c3ccc4c(c3)c(cn4-c3cc(COC)ccc3C#N)CC(C)(C)COC(=O)C3CCCN(N3)C2=O)C(C)C)C1 (stereo not drawn) [Compound 393]
Kd (cyclophilin A (CYPA)): 5 to 15 µM
EC50 [1]: 0.5 to 5 µM
IC50 (pERK in H358 cells): 1 to 10 µM

C=CC(=O)N1CCC(C(=O)N(C)C(C(=O)NC2Cc3cc(O)cc(c3)-c3ccc4c(-c5c(COC)noc5C)cn(c4c3)CC(C)(C)COC(=O)C3CCCN(N3)C2=O)C(C)C)C1 (stereo not drawn) [Compound 394]
Kd (cyclophilin A (CYPA)): 5 to 15 µM
EC50 [1]: 0.5 to 5 µM
IC50 (pERK in H358 cells): > 10 µM

C=CC(=O)N1CCC(C(=O)N(C)C(C(=O)NC2Cc3cc(O)cc(c3)-c3ccc4c(c3)c(cn4C(C)(C)C#N)CC(C)(C)COC(=O)C3CCCN(N3)C2=O)C2CCCC2)C1 (stereo not drawn) [Compound 395]
Kd (cyclophilin A (CYPA)): ≤ 5 µM
EC50 [1]: 0.5 to 5 µM
IC50 (pERK in H358 cells): ≤ 1 µM

C=CC(=O)N1CCC(C(=O)N(C)C(C(=O)NC2Cc3cc(O)cc(c3)-c3ccc4c(c3)c(c(C#N)n4CC)CC(C)(C)COC(=O)C3CCCN(N3)C2=O)C2CCCC2)C1 (stereo not drawn) [Compound 397]
Kd (cyclophilin A (CYPA)): ≤ 5 µM
EC50 [1]: ≤ 0.5 µM
IC50 (pERK in H358 cells): ≤ 1 µM
